From patent publication US20180318275A1, “COMBINATION THERAPY USING PI3K INHIBITOR AND MDM2 INHIBITOR” (Novartis AG, priority 2015, published 2018) come the findings set out here.

Holding throughout (format): cell-based
One experiment deals with GP2d. Nature of the experiment: Cell proliferation (cell count by microscopy), Example 2. The conditions noted are these: single agent, 72 h, cell count relative to DMSO, unit from text b187 (micromolar, top dose 10 μM). The method, then:
(§1) COMPOUNDS A and B were dissolved in 100% DMSO (Sigma, Catalog number D2650) at concentrations of 20 mM and stored at −20° C. until use. Compounds were arrayed in drug master plates (Greiner, Catalog number 788876) and serially diluted 3-fold (7 steps) at 2000× concentration.
(§2) To test the effect of the combination of COMPOUND A and COMPOUND B on cell proliferation cells were plated in black 384-well microplates with clear bottom (Matrix/Thermo Scientific, Catalog number 4332) in 50 μL media per well at cell densities between 500 and 1250 cells/well (Table 1) and allowed to incubate at 37 degrees, 5% CO2 for 24 h. After 24 h one 384-well plate per cell line was prepared for cell counting by microscopy (see below) without receiving treatment (=‘baseline’). The other cell plates were treated by transferring 25 nL of the 2000× compound from drug master plates using an ATS acoustic liquid dispenser (ECD Biosystems) and resulting in a final 1× concentration. COMPOUND A was used over a final concentration range of 13 nM-10 μM, and COMPOUND B was used over a final concentration range of 13 nM-10 μM (7 1:3 dilution steps). For the combination of COMPOUND A with COMPOUND B the single agents were combined at a fixed ratio of 1:1 at each dilution resulting in 7 combination treatments. […] After compound addition 50 nL of 2 mM CellEvent Caspase-3/7 Green Detection Reagent (ThermoFisher, Catalog number C10423) were added to one of the three replicates using the HP D300 Digital Dispenser (Tecan). Caspase 3/7 induction was measured as a proxy for apoptosis induced by the treatments. Cells were treated for 72 h to 96 h depending on their doubling time (Table 1), and Caspase 3/7 activation was measured every 24 h by microscopy using an InCell Analyzer 2000 (GE Healthcare) equipped with a 4× objective and FITC excitation/emission filters. At the end of the treatment cells were prepared for cell counting by microscopy. Cells were fixed and permeabilised for 45 minutes in 4% PFA (Electron Microscopy Sciences, Catalog number 15714), 0.12% TX-100 (Electron Microscopy Sciences, Catalog number 22140) in PBS (Boston Bioproducts, Catalog number BM-220). After washing cells three times with PBS their DNA was stained for 30 minutes with Hoechst 33342 (ThermoFisher, Catalog number H3570) at a final concentration of 4 μg/mL. Cells were washed three times with PBS and then plates were heat-sealed using a PlateLoc (Agilent Technologies) with aluminum seals (Agilent Technologies, Catalog number 06644-001) and stored at 4° C. until imaging. All cells per well/treatment were captured in a single image by fluorescence microscopy using an InCell Analyzer 2000 (GE Healthcare) equipped with a 4× objective and DAPI excitation/emission filters.
(§3) Images were analyzed after adapting previously described methods (Horn, Sandmann et al. 2011, Nat. Methods 8(4): 341-346) and using the Bioconductor package EBImage in R (Pau, Fuchs et al. 2010, Bioinformatics 26(7):979-981). Objects in both channels, DAPI (for Hoechst/DNA) and FITC (for Caspase 3/7), were segmented separately by adaptive thresholding and counted. A threshold for Caspase 3/7 positive objects was defined manually per cell line after comparing negative controls (DMSO) and positive controls (Staurosporine). By analyzing 17 additional object/nuclei features in the DNA channel (shape and intensity features) debris/fragmented nuclei were identified. To this end per cell line the distributions of the additional features between positive controls (Staurosporine) and negative controls (DMSO) were compared manually. Features that could differentiate between the conditions (e.g. a shift in the distribution of a feature measurement comparing DMSO with Staurosporine) where used to define the ‘debris’ population versus the population of ‘viable’ nuclei. The debris counts were subtracted from raw nuclei counts. The resulting nuclei number was used as measure of cell proliferation (‘cell count’). […]

For another experiment, the system named is HCT-116. The experiment is described as above. The note with it: Homo sapiens; HCT-116, single agent, 72 h, cell count relative to DMSO. The method, then:
as §1, §2, §3

For the next experiment, the system named is LS-180. Described as above. The note with it: Homo sapiens, LS180; LS-160 (so in the source), single agent, 72 h, cell count relative to DMSO. The method, then:
as §1, §2, §3

A further experiment relates to LoVo. Described as above. The note with it: Homo sapiens, single agent, 96 h, cell count relative to DMSO. The method, then:
as §1, §2, §3

In another experiment the test system is RKO. Described as above. The note with it: Homo sapiens, single agent, 72 h, cell count relative to DMSO. How it is done: as §1, §2, §3
Experiment [1] deals with 5 TP53 wild type colorectal cancer cell lines. Nature of the experiment: Cell proliferation over the cell line panel, Example 2. The conditions noted are these: Example 2, panel of 5 lines, 13 nM-10 μM. The method, then: To test the effect of the combination of COMPOUND A and COMPOUND B on cell proliferation cells were plated in black 384-well microplates with clear bottom (Matrix/Thermo Scientific, Catalog number 4332) in 50 μL media per well at cell densities between 500 and 1250 cells/well (Table 1) and allowed to incubate at 37 degrees, 5% CO2 for 24 h. After 24 h one 384-well plate per cell line was prepared for cell counting by microscopy (see below) without receiving treatment (=‘baseline’). The other cell plates were treated by transferring 25 nL of the 2000× compound from drug master plates using an ATS acoustic liquid dispenser (ECD Biosystems) and resulting in a final 1× concentration. COMPOUND A was used over a final concentration range of 13 nM-10 μM, and COMPOUND B was used over a final concentration range of 13 nM-10 μM (7 1:3 dilution steps). […] Caspase 3/7 induction was measured as a proxy for apoptosis induced by the treatments. Cells were treated for 72 h to 96 h depending on their doubling time (Table 1), and Caspase 3/7 activation was measured every 24 h by microscopy using an InCell Analyzer 2000 (GE Healthcare) equipped with a 4× objective and FITC excitation/emission filters. […] All cells per well/treatment were captured in a single image by fluorescence microscopy using an InCell Analyzer 2000 (GE Healthcare) equipped with a 4× objective and DAPI excitation/emission filters. […]

`Cc1nc(NC(=O)N2CCC[C@H]2C(N)=O)sc1-c1ccnc(C(C)(C)C(F)(F)F)c1` [COMPOUND A, (S)-Pyrrolidine-1,2-dicarboxylic acid 2-amide 1-({4-methyl-5-[2-(2,2,2-trifluoro-1,1-dimethyl-ethyl)-pyridin-4-yl]-thiazol-2-yl}-amide)]: the IC50 with GP2d is 500 nM; in the experiment on HCT-116 it was 9800 nM; with LS-180, more than 10000 nM; in the experiment on LoVo it was more than 10000 nM; in the experiment with RKO, 3900 nM. In addition, the “Single agent growth inhibition, in words” value in experiment [1] is “inhibited the growth of 2 of the cell lines with micromolar IC50 values, and was active only at the highest dose (10 μM) in the 3 other lines”.

Turning to `COc1cc2c(cc1OC(C)C)[C@H](c1ccc(Cl)cc1)N(c1ccc(N(C)C[C@H]3CC[C@H](N4CCN(C)C(=O)C4)CC3)cc1)C(=O)C2` [COMPOUND B, (S)-1-(4-Chloro-phenyl)-7-isopropoxy-6-methoxy-2-(4-{methyl-[4-(4-methyl-3-oxo-piperazin-1-yl)-trans-cyclohexylmethyl]-amino}-phenyl)-1,4-dihydro-2H-isoquinolin-3-one], the IC50 is 800 nM in the experiment on GP2d; 100 nM in the experiment with HCT-116; 700 nM with LS-180; 600 nM with LoVo; 1200 nM with RKO. Moreover, in experiment [1], the “Single agent growth inhibition, in words” value is “inhibited the growth of cell lines with sub-micromolar to micromolar IC50 values”.
